How the values were obtained:
[1] = system: NOS (total NOS, nNOS) in homogenates from the cortex of mice; assay: NOS activity assay; format: biochemical, mouse; conditions: 10 μM, 30 min
Procedure: NOS activity assay. Nitric oxide synthase activities in the hippocampus were measured using a conventional assay. Briefly, the hippocampus was homogenized in ice-cold PBS, pH 7.4, and centrifuged at 10,000 g for 20 min at 4° C. The supernatant was ultracentrifuged at 100,000×g for 15 min at 4° C. using a 300 kDa molecular weight cut-off filter by centrifugation. NOS activity in the filtrates was measured using a commercially available kit (Calbiochem). […] Neuronal NOS activity was computed by subtracting the iNOS activity from the total NOS activity with the inhibited fraction of eNOS. Inducible NOS activity was measured by adding EGTA at 3 mM to chelate free Ca^2+ from the reaction mixture. NOS activities were expressed as unit (U). One U was defined as nanomoles of NO formed in 1 min by 1 mg of protein.

nNOS-PSD95 interaction = molecular target: T1, nNOS-PSD95 interaction (Mus musculus, UniProt Q9Z0J4); assay: Co-immunoprecipitation of nNOS-PSD95 complex in cortex of mice (MCAO/reperfusion); format: in vivo
T1 construct: from tissue; host or cells: mouse cortex
Procedure: (§1) Co-immunoprecipitation. Cultured neurons, organotypic hippocampal slice cultures (OHSCs) or the cortices of mice were lysed and centrifuged. The supernatant was preincubated with protein G-Sepharose beads (Sigma-Aldrich) and then centrifuged to obtain the target supernatant. The antibodyconjugated protein G-Sepharose beads were incubated with the target supernatant, centrifuged, washed and heated the beads to elute bound proteins and analyzed proteins by immunoblotting.
(§2) Coimmunoprecipitation. Neurons were washed in PBS twice, and then lysed in 400 μl buffer A (50 mM Tris-HCl [pH 7.4], 150 mM NaCl, 1 mM EDTA-Na, 1% NP-40, 0.02% sodium azide, 0.1% SDS, 0.5% sodium deoxycholate, 1% PMSF, 1‰ aprotinin, 1‰ leupeptin, and 0.5‰ pepstatin A). The lysates were centrifugated at 12,000×g for 15 min at 4° C. […] Proteins were analyzed by immunoblotting.
(§3) Samples were immunoprecipitated and analyzed by western blotting with the indicated antibodies (IP for nNOS, and WB for PSD-95), and analyzed for (a) nNOS-PSD-95 complex amounts in the cortex of mice subjected to 90 min MCAO and 30 min reperfusion (n=3), as shown in FIG. 5A in wild type mice after MCAO, and (b) nNOS-PSD-95 complex amounts in neurons exposed to 50 μM glutamate with 10 μM glycine for 30 min (n=3). […]

[2] = system: rats (conditioned fear, percent time freezing); assay: Conditioned Fear Test; format: in vivo, rat; conditions: extinction on day 2, vs vehicle
PSD95-SynGAP interaction = molecular target: T2, PSD95-SynGAP interaction (Mus musculus, UniProt Q62108); assay: Co-immunoprecipitation of PSD95-SynGAP in ischemic cortexes; format: in vivo; conditions: 1.5 mg kg-1 i.v. 15 min before MCAO
T2 construct: from tissue; host or cells: mouse ischemic cortex
Procedure: (§4) Coimmunoprecipitation. Neurons were washed in PBS twice, and then lysed in 400 μl buffer A (50 mM Tris-HCl [pH 7.4], 150 mM NaCl, 1 mM EDTA-Na, 1% NP-40, 0.02% sodium azide, 0.1% SDS, 0.5% sodium deoxycholate, 1% PMSF, 1‰ aprotinin, 1‰ leupeptin, and 0.5‰ pepstatin A). The lysates were centrifugated at 12,000×g for 15 min at 4° C. The OHSCs or cortex of mice was homogenized in ice-cold lysis buffer A. After lysis for 15 min, samples were centrifuged at 20,000×g for 15 min. The supernatant were preincubated for 1 h at 4° C. with 0.025 ml of protein G-sepharose beads (Sigma-Aldrich) and then centrifuged to remove proteins that adhered nonspecifically to the beads and obtain the target supernatant for following IP experiment. Protein G Sepharose beads were incubated with antibodies (rabbit antibody to nNOS, 1:100, Affinity BoReagents; rabbit antibody to PSD95, 1:100, Cell Signaling Technology; and rabbit antibody to NR2B antibody, 1:200, Chemicon) for 3-4 h. The antibodies-conjugated protein G-sepharose beads and the target supernatant were added for incubation overnight. Immune complexes were isolated by centrifugation, washed 4 times with 0.05 M HEPES buffer, pH 7.1, containing 0.15% Triton X-100, 0.15 M NaCl, and 0.1×10^−3 M sodium orthovanadate, and bound proteins were eluted by heating at 100° C. in loading buffer. Proteins were analyzed by immunoblotting. […]

rats [3] = assay: Open Field Test of Anxiety; format: in vivo, rat; conditions: i.p. 60 min prior to 5 min test; IC87201 4 mg/kg, ZL006 10 mg/kg; vs vehicle
Procedure: Open Field Test of Anxiety. Adult male rats are evaluated in a conventional open field test. Compounds described herein are evaluated compared to vehicle controls. Animals are observed for duration of time spent in regions of the open field (inner region versus outer region) and line crossings during a […] period following a systemic injection of vehicle or a test compound.
(§5) Results. Animals are systemically pre-treated by i.p. injections with two different agents that are known to disrupt the nNOS-PSD95 interaction, IC87201 (4 mg/kg) and ZL006 (10 mg/kg), 60 min prior to a 5 min open field test immediately followed by a 5 min social interaction test. […] (Inner time F(2,17)=0.4, p=0.678; Outer time F(2,17)=0.4, p=0.678; Line crossings F(2,17)=1.0, p=0.405; n=6/group).

nNOS-CAPON interaction = molecular target: T3, nNOS-CAPON interaction (Mus musculus, UniProt Q9Z0J4); assay: Co-immunoprecipitation of nNOS-CAPON in ischemic cortexes; format: in vivo; conditions: 1.5 mg kg-1 i.v. 15 min before MCAO
T3 construct: from tissue; host or cells: mouse ischemic cortex
Procedure: as §4

[4] = 1.5 mg/kg i.v., 15 and 60 min after dosing; FIG. 8 (Zhou 2010); cited from earlier work
nNOS-PSD95 complex = assay: Co-immunoprecipitation of nNOS-PSD95 complex in neuronal cultures; format: cell-based
Procedure: as §1, §2, §3

[5] = system: rats (conditioned fear, percent time freezing); assay: Conditioned Fear Test; format: in vivo, rat; conditions: for acquisition of conditioned fear / fear extinction: compared to respective vehicle groups; for fear extinction: post conditioning treatment; for percent time freezing on test day 1 / percent time freezing during acquisition / percent time freezing during recall: rats; for percent time freezing on test day 1: after fear conditioning, FIGS. 1 and 2; for percent time freezing on test day 1 / percent time freezing during acquisition: vs vehicle; for percent time freezing during acquisition: acquisition of fear conditioning; for percent time freezing during recall: recall on day 3; for conditioned fear response 24 hours later (day 3 fear recall): treatment 5-60 min following the day 2 conditioning session
Procedure: Conditioned Fear Test. The conditioning chamber (Hamilton-Kinder, Paolo Alto, Calif.) is equipped to present light and tone cues along with a video camera set up to record behavior. The entire chamber is enclosed in a sound attenuated box. The animals went through 5 days of experimentation: Day 1 Habituation; Day 2 Conditioning; Day 3 Fear recall testing; Day 4 Extinction Training; and Day 5 Extinction Recall Test. Day 1 Habituation: Rats are exposed to the chambers for 10 min. Day 2 Conditioning: Rats are given five presentations of the tone CS (4 kHz, 80 dB, 20 sec) each co-terminating with a 0.8 mA foot shock lasting 0.5-s (US). The first CS-US pairing is presented 120 s into the session and the inter-trial interval (ITI) between CS-US presentations is 105 s on average (range 90-120). Conditioning sessions last about 11 minutes. Day 3 Fear recall tests: Twenty-four hours following the acquisition training, rats are given five 20-s CS presentations in the absence of the US. The first tone is presented 120 s into the session and the inter-trial interval (ITI) between CS-US presentations is 105 s on average (range 90-120). Percent time spent freezing is measured during each tone as an indication of fear recall. Recall test sessions last about 11 minutes. Extinction Training: Rats are exposed to 20 presentations of the CS in the absence of the US (mean ITI 180 s, range 120 to 240 s). Extinction Recall Test: 10 presentations of the CS only (mean ITI 180 s, range 120 to 240 s) are given 24 hrs after extinction.

[6] = system: NMDARs EPSCs of CA1 pyramidal neurons; assay: Electrophysiological recordings in hippocampal slices; format: cell-based; conditions: 1.0 μM, rat hippocampal slices, low-Mg2+ ACSF
From the text: Electrophysiological recordings. […] Briefly, 3 weeks old rats were anesthetized with ethyl ether and decapitated, and whole hippocampus was removed from the brain. Coronal brain slices (350 μm thickness) were cut using a vibrantly blade microtome in ice-cold artificial CSF (ACSF) containing the following (in mM) 126 NaCl, 2.5 KCl, 1 MgCl2, 1 CaCl2, 1.25 KH2PO4, 26 NaHCO3, and 20 glucose. ACSF was bubbled continuously with carbogen (95% O2 and 5% CO2) to adjust the pH to 7.4. Fresh slices were incubated in chamber with carbogenated ACSF and recovered at 34° C. for at least 1.5 h before they were transferred to recording chamber. For the recording of EPSCs, the individual slices were transferred to a recording chamber, and CA1 pyramidal neurons were viewed under upright microscopy (Olympus). […] Excitatory postsynaptic responses of CA1 pyramidal neurons were evoked by stimulating the Schaffer fibers through a constant-current pulse delivered by a bipolar tungsten electrode and recorded with Axopatch-200B amplifier (Molecular Devices). […] The baseline was recorded at least 10 min to ensure the stability of the response. Data were collected with pClamp 9.2 software and analyzed using Clampfit 9.2 (Molecular Devices).

rats [7] = assay: Social Interaction test; format: in vivo, rat; conditions: i.p. 60 min prior; IC87201 4 mg/kg, ZL006 10 mg/kg; vs vehicle
Procedure: Social Interaction. Adult male rats are evaluated in a conventional social interaction assay. Compounds described herein are evaluated compared to vehicle controls. Animals are observed for duration of time spent in regions of open field test (inner region versus outer region) and line crossings during a 60 min period following a systemic injection of vehicle or a test compound.
as §5

[8] = system: cortical neurons stimulated with glutamate and glycine; assay: Cell viability (LDH release) assay, glutamate/glycine exposed neurons; format: cell-based; conditions: FIG. 7; for glutamate receptor induced cell death: primary neuronal slices
Procedure: Cell viability assays. An LDH release assay was used for the measurement of cell viability. Cortical neurons were stimulated with glutamate and glycine in Mg^2+-free Locke's buffer. The neurons were washed with the buffer and incubated in cell-culture media for 12 h. Subsequently, LDH in the cell-culture media and total LDH after cell lysis were measured according to the manufacturer's instructions. LDH release was defined as ratio of LDH in the media to total LDH and normalized to the fold of control.

[9] = molecular target: PSD95-cypin protein-protein interaction (Homo sapiens, UniProt P78352); conditions: plate binding assay (Florio 2009); cited from earlier work
[10] = system: NMDA-induced increase of cGMP in primary cultured hippocampal neurons; assay: NMDA-induced increase in cGMP in primary rat hippocampal neurons; format: cell-based
Procedure: NMDA-induced increase in cGMP in primary rat hippocampal neurons Neonatal rat hippocampal cultures were prepared according to Brewer (1997). Cells were cultured for 14-21 days before testing. NMDA ([…]) increased cGMP (measured by a cGMP-RIA kit from Perkin-Elmer) within 2-15 min of addition. The NMDA receptor antagonist, MK-801, and a NOS catalytic inhibitor, L-NAME, were used as positive controls.
NMDA-induced increase in cGMP in primary rat hippocampal neurons. Neonatal rat hippocampal cultures were prepared according to Brewer (1997). Cells were cultured for 14-21 days before testing. NMDA ([…]) increased cGMP (measured by a cGMP-RIA kit from Perkin-Elmer) within 2-15 min of addition. The NMDA receptor antagonist, MK-801, and a NOS catalytic inhibitor, L-NAME, were used as positive controls.

[11] = system: cGMP production induced by a NO donor; conditions: (Florio 2009); cited from earlier work

T1 sequence (Q9Z0J4 whole entry, the tested form may be a part): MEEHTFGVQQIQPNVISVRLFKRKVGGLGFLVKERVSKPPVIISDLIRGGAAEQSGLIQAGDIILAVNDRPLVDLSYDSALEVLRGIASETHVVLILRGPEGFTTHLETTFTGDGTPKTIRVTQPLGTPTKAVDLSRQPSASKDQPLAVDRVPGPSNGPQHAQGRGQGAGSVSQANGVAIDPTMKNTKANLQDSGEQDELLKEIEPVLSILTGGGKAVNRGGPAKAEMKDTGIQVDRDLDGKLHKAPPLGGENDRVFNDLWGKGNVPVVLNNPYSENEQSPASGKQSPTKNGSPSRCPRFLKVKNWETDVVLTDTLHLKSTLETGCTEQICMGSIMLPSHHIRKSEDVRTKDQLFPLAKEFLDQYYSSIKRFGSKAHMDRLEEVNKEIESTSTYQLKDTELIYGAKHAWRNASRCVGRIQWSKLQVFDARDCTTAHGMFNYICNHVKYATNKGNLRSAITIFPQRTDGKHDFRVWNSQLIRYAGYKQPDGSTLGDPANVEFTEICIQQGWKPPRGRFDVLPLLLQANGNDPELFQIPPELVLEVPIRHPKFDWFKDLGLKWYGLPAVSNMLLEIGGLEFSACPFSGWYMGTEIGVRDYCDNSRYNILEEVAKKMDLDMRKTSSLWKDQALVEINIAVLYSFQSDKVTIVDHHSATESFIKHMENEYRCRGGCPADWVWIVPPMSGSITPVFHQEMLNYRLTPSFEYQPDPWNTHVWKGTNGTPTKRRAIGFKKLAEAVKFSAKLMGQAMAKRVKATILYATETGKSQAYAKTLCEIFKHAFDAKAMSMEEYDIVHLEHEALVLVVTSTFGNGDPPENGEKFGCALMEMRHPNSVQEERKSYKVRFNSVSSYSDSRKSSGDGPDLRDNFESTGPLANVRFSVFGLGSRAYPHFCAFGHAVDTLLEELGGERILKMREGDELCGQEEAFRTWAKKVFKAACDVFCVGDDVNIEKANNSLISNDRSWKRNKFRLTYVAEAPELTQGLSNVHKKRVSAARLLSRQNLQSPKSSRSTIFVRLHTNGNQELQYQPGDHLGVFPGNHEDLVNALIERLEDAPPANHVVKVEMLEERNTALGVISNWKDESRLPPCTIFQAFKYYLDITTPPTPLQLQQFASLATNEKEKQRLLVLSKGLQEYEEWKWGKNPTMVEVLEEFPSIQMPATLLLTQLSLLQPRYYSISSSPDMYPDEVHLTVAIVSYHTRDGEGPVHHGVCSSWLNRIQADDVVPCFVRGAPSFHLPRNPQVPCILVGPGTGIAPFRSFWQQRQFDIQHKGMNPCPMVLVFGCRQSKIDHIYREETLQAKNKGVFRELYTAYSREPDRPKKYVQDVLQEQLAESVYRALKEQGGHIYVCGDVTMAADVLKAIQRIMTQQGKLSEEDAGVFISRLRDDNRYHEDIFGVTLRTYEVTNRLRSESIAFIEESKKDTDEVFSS
T2 sequence (Q62108 whole entry): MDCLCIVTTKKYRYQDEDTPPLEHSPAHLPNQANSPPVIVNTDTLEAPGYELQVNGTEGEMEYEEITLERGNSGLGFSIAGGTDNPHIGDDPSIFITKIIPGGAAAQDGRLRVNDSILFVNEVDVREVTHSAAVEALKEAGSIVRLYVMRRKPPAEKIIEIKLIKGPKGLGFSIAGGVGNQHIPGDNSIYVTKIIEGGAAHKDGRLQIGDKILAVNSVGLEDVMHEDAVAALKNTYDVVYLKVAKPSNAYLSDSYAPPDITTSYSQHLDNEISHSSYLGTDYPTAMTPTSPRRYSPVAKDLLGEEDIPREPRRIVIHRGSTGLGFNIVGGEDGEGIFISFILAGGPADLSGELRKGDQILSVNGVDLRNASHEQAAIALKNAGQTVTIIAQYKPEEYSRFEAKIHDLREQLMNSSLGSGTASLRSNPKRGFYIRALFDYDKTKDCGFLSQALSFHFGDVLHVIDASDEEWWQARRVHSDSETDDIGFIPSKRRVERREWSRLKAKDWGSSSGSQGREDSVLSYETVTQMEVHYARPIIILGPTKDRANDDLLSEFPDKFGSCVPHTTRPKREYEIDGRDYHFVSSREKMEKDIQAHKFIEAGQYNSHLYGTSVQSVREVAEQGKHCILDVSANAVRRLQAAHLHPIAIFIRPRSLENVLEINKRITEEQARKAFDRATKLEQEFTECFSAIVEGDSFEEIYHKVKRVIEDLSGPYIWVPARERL
Sequence of PSD95-cypin protein-protein interaction (P78352 whole entry): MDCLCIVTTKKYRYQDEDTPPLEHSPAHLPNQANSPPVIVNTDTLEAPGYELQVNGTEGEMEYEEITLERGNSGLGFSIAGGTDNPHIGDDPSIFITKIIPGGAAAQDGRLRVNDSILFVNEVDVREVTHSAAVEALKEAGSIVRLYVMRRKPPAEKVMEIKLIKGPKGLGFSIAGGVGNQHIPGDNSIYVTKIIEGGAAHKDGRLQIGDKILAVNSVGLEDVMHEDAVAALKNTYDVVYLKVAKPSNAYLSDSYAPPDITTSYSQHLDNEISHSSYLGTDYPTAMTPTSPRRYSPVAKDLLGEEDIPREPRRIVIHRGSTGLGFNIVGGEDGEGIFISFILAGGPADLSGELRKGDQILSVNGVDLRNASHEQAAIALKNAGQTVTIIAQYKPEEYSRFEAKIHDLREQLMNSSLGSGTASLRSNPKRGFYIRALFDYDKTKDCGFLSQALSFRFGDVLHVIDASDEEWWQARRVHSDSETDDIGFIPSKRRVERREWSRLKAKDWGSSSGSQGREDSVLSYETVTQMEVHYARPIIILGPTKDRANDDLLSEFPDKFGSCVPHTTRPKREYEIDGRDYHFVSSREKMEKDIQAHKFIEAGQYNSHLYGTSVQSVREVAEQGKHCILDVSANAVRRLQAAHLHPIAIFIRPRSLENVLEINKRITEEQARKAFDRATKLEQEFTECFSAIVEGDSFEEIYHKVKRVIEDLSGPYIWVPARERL
T3 sequence (Q9Z0J4 whole entry): as the sequence (Q9Z0J4 whole entry, the tested form may be a part) above

| Compound | percent time freezing during extinction [2] | duration of time spent in regions of the open field (inner region versus outer region) (rats [3]) | number of line crossings (rats [3]) | acquisition of conditioned fear [5] | fear extinction [5] | percent time freezing on test day 1 [5] | percent time freezing during acquisition [5] | percent time freezing during recall ([5]; data not shown) | conditioned fear response 24 hours later (day 3 fear recall) [5] | social interaction duration (rats [7]) | glutamate receptor induced cell death [8] | other results |
| --- | --- | --- | --- | --- | --- | --- | --- | --- | --- | --- | --- | --- |
| O=C(O)c1ccc(NCc2cc(Cl)cc(Cl)c2O)cc1O [ZL006] | Neither IC8701 nor ZL006 altered the percent time freezing | not observed a significant difference | not observed a significant difference | identical acquisition of conditioned fear | normal patterns of fear extinction | reduced the percent time freezing on test day 1 | Neither IC8701 nor ZL006 altered the percent time freezing | Neither IC8701 nor ZL006 altered the percent time freezing | significant attenuation of conditioned fear response | not observed a significant difference | disrupt nNOS downstream signaling | NOS activity / NOS catalytic activity [1]: does not inhibit NOS activity; nNOS-PSD95 interaction in the non-ischemic cortex (nNOS-PSD95 interaction; non-ischemic cortex, n=3, ZL006 vs vehicle): did not show a significant effects; ischemic induced increase in nNOS-PSD95 interaction (nNOS-PSD95 interaction; wild type mice, MCAO and reperfusion): blocks the ischemic induced increase in nNOS-PSD95 interaction; co-immunoprecipitation of PSD95-SynGAP interaction (PSD95-SynGAP interaction): does not inhibit; co-immunoprecipitation of nNOS-Capon interaction (nNOS-CAPON interaction): does not inhibit; penetration in the CNS (concentrations in serum, CSF and brain tissue) [4]: significant penetration in the CNS; co-immunoprecipitation of nNOS-PSD95 complex (nNOS-PSD95 complex): inhibits the in co-immunoprecipitation of nNOS-PSD95 complex; freezing, extinction ([5]; 10 mg/kg i.p., after the acquisition day, 1 hour prior to the consolidation day, FIG. 3): improved extinction; freezing, recall ([5]; 10 mg/kg i.p., after the acquisition day, 1 hour prior to the consolidation day, data not shown): improved recall; NMDARs EPSCs [6]: does not inhibit NMDARs EPSCs; NMDAR-dependent excitotoxicity (lactate dehydrogenase release) and cerebral ischemia ([8]; cultured neurons exposed to 50 μM glutamate with 10 μM glycine for 30 min): prevents NMDAR-dependent excitotoxicity and cerebral ischemia |
| Oc1c(Cl)cc(Cl)cc1CNc1ccc2[nH]nnc2c1 [IC87201, 2-((1H-benzo[d][1,2,3]triazol-5-ylamino)methyl)-4,6-dichlorophenol] | Neither IC8701 nor ZL006 altered the percent time freezing | not observed a significant difference | not observed a significant difference | identical acquisition of conditioned fear | normal patterns of fear extinction | reduced the percent time freezing on test day 1 | Neither IC8701 nor ZL006 altered the percent time freezing | Neither IC8701 nor ZL006 altered the percent time freezing | significant attenuation of conditioned fear response | improvement in social interaction duration | disrupt nNOS downstream signaling | disruption of PSD95-cypin protein-protein interaction [9]: does not disrupt; attenuation of NMDA-induced increases in cGMP [10]: dose-dependently attenuated NMDA-induced increases in cGMP; IC50 ([10]; Rattus norvegicus, Hippocampal neuron, n=14-20, FIG. 6, read-out: IC50, attenuation of NMDA-induced increase of cGMP): 2700 nM; effect on cGMP production induced by a NO donor [11]: no effect |

Reference: patent US20150105324A1, “COMPOSITIONS AND METHODS FOR TREATING PTSD AND RELATED DISEASES” (INDIANA UNIVERSITY RESEARCH AND TECHNOLOGY CORPORATION, priority 2012, published 2015)
